Data taken from US20110217713A1 (On-Q-ity, priority 2010, published 2011).

Test system: non-small cell lung cancer patient specimens (adenocarcinomas and squamous cell carcinoma)
Test: International Adjuvant Lung Trial (IALT): cisplatin-based therapy vs observation, DFS/OS against IHC DNA repair biomarker Q-scores (Cox PH models)
Assay type: in vivo, human
Description: An immunohistochemical evaluation of DNA Repair Proteins was conducted on a large international patient specimen collection from the IALT trial (International Adjuvant Lung Trial). This clinical trial originally comprised approximately 1867 non-small cell lung cancer patient specimens (adenocarcinomas and squamous cell carcinoma) and was designed to test clinical parameters for patients receiving either cisplatin-based therapy or those considered observation. One problem with testing of biomarkers in general from clinical trials is that the patient population treatments are generally a mixture of several different treatments and combinations of such and so results may be confounded by interactions of various treatments. However, the IALT trial represents pristine treatment arms of cisplatin and observation and thus is relatively free of confounding affects due to treatment variation.
International Adjuvant Lung Cancer Trial (IALT) NSCLC FFPE patient specimens constructed on TMAs (13 total) were stained by IHC for DNA repair biomarkers: ATM, MSH2, ERCC1, p53, pMK2, PARP1, BRCA1, XPF. An average of 603 patients were analyzed for each biomarker. Tumor biomarker nuclear or cytoplasmic levels were determined using digital image user defined macros. Scores were generated based on weighted intensity and quantity of stained cells. In reference to accompanying diagrams in the Powerpoint files, please note that a wide dynamic range achieved during assay development and optimization in commercially available TMAs is translationally achieved when patients comprising this study population are stained, annotated for tumor region and scored by user-defined macros.
Previous studies have utilized standard pathologist-based scoring, thus we chose to optimize the IHC-based assessment of biomarker levels using digital pathology and weighted scoring. This endeavor is undertaken so that for a given population a continuum of scores (herein referred to as Q-scores) with a broad dynamic range may be generated by user defined macros. Here, scoring of individual tumor cells comprising each patient specimen is generated and then patients assembled into a population continuum of scores against which finer cut-points may tested and established rather than crude binning methods as employed in previous studies.
Q-score=10*(% of 10+cells)+9*(% of 9+cells)+8*(% of 8+cells)+7*(% of 7+cells) . . . 1*(% of 1+cells)
Cox PH models adjusted for relevant clinical and stratification variables were used in the univariate analyses of Disease-Free Survival (DFS) and Overall Survival (OS). Initial analyses were conducted using biomarker Q scores as continuous variables against clinical endpoint metrics.

[1] = ATM model, ADENOCARCINOMA, With adjustment variables
[2] = ATM model, ADENOCARCINOMA, With selected variables
[3] = ATM model, ADENOCARCINOMA, Without variables
[4] = ATM model, SQUAMOUS CELLS, With adjustment variables
[5] = ATM model, SQUAMOUS CELLS, With selected variables
[6] = ATM model, SQUAMOUS CELLS, Without variables
[7] = BRCA1 model, ADENOCARCINOMA, With adjustment variables
[8] = BRCA1 model, ADENOCARCINOMA, With selected variables
[9] = BRCA1 model, ADENOCARCINOMA, Without variables
[10] = BRCA1 model, SQUAMOUS CELLS, With adjustment variables
[11] = BRCA1 model, SQUAMOUS CELLS, With selected variables
[12] = BRCA1 model, SQUAMOUS CELLS, Without variables
[13] = Cox PH model with PMK2MC, with adjustment variables, histology heading not shown
[14] = Disease Free Survival, MEAN Q SCORE OF PMK2 CYTOPLASM DIVIDED BY NUCLEAR, Adenocarcinoma, With selected variables
[15] = Disease Free Survival, MEAN Q SCORE OF PMK2 CYTOPLASM DIVIDED BY NUCLEAR, Adenocarcinoma, Without variables
[16] = Disease Free Survival, MEAN Q SCORE PMK2 CYTOPLASM, Adenocarcinoma, With adjustment variables
[17] = Disease Free Survival, MEAN Q SCORE PMK2 CYTOPLASM, Adenocarcinoma, With selected variables
[18] = Disease Free Survival, MEAN Q SCORE PMK2 CYTOPLASM, Adenocarcinoma, Without variables
[19] = Disease Free Survival, MEAN Q SCORE PMK2 CYTOPLASM, Squamous Cells, With adjustment variables
[20] = Disease Free Survival, MEAN Q SCORE PMK2 CYTOPLASM, Squamous Cells, With selected variables
[21] = Disease Free Survival, MEAN Q SCORE PMK2 CYTOPLASM, Squamous Cells, Without variables
[22] = Disease Free Survival, MEAN Q SCORE PMK2 NUCLEAR, Adenocarcinoma, With adjustment variables
[23] = Disease Free Survival, MEAN Q SCORE PMK2 NUCLEAR, Adenocarcinoma, With selected variables
[24] = Disease Free Survival, MEAN Q SCORE PMK2 NUCLEAR, Adenocarcinoma, Without variables
[25] = Disease Free Survival, MEAN Q SCORE PMK2 NUCLEAR, Squamous Cells, With adjustment variables
[26] = Disease Free Survival, MEAN Q SCORE PMK2 NUCLEAR, Squamous Cells, With selected variables
[27] = Disease Free Survival, MEAN Q SCORE PMK2 NUCLEAR, Squamous Cells, Without variables
[28] = Disease Free Survival, MEAN Q SCORE SUM OF PMK2 CYTOPLASM & NUCLEAR, Adenocarcinoma, With adjustment variables
[29] = Disease Free Survival, MEAN Q SCORE SUM OF PMK2 CYTOPLASM & NUCLEAR, Adenocarcinoma, With selected variables
[30] = Disease Free Survival, MEAN Q SCORE SUM OF PMK2 CYTOPLASM & NUCLEAR, Adenocarcinoma, Without variables
[31] = Disease Free Survival, MEAN Q SCORE SUM OF PMK2 CYTOPLASM & NUCLEAR, Squamous Cells, With adjustment variables
[32] = Disease Free Survival, MEAN Q SCORE SUM OF PMK2 CYTOPLASM & NUCLEAR, Squamous Cells, With selected variables
[33] = Disease Free Survival, MEAN Q SCORE SUM OF PMK2 CYTOPLASM & NUCLEAR, Squamous Cells, Without variables
[34] = ERCC1 model, ADENOCARCINOMA, With adjustment variables

Structure (SMILES): N.N.[Cl][Pt][Cl] [cisplatin]
- HazardRatio, ATM_Treatment [1]: 0.941
- HazardRatio, Treatment [1]: 1.033
- HazardRatio, ATM_Treatment [2]: 0.993
- HazardRatio, Treatment [2]: 1.004
- HazardRatio, ATM_Treatment [3]: 0.972
- HazardRatio, Treatment [3]: 1.142
- HazardRatio, ATM_Treatment [4]: 1.172
- HazardRatio, Treatment [4]: 0.625
- HazardRatio, ATM_Treatment [5]: 1.172
- HazardRatio, Treatment [5]: 0.640
- HazardRatio, ATM_Treatment [6]: 1.148
- HazardRatio, Treatment [6]: 0.659
- HazardRatio, BRCA1_Treatment [7]: 1.022
- HazardRatio, Treatment [7]: 0.895
- HazardRatio, BRCA1_Treatment [8]: 1.027
- HazardRatio, Treatment [8]: 0.954
- HazardRatio, BRCA1_Treatment [9]: 0.844
- HazardRatio, Treatment [9]: 1.391
- HazardRatio, BRCA1_Treatment [10]: 1.043
- HazardRatio, Treatment [10]: 0.819
- HazardRatio, BRCA1_Treatment [11]: 1.048
- HazardRatio, Treatment [11]: 0.831
- HazardRatio, BRCA1_Treatment [12]: 1.028
- HazardRatio, Treatment [12]: 0.852
- HazardRatio, PMK2MC_Treatment interaction (Disease Free Survival) [13]: 1.244
- HazardRatio, Treatment (Disease Free Survival) [13]: 0.787
- HazardRatio, Treatment (Disease Free Survival, MEAN Q SCORE OF PMK2 CYTOPLASM DIVIDED BY NUCLEAR, Adenocarcinoma, With adjustment variables): 0.790
- HazardRatio, PMK2MCNp_Treatment [14]: 31E22
- HazardRatio, Treatment [14]: 0.827
- HazardRatio, PMK2MCNp_Treatment [15]: 263.6
- HazardRatio, Treatment [15]: 0.997
- HazardRatio, Treatment (Disease Free Survival, MEAN Q SCORE OF PMK2 CYTOPLASM DIVIDED BY NUCLEAR, Squamous Cells, With adjustment variables): 0.643
- HazardRatio, Treatment (Disease Free Survival, MEAN Q SCORE OF PMK2 CYTOPLASM DIVIDED BY NUCLEAR, Squamous Cells, With selected variables): 0.681
- HazardRatio, Treatment (Disease Free Survival, MEAN Q SCORE OF PMK2 CYTOPLASM DIVIDED BY NUCLEAR, Squamous Cells, Without variables): 0.755
- HazardRatio, PMK2MC_Treatment [16]: 1.163
- HazardRatio, Treatment [16]: 0.862
- HazardRatio, PMK2MC_Treatment [17]: 1.096
- HazardRatio, Treatment [17]: 0.874
- HazardRatio, PMK2MC_Treatment [18]: 0.647
- HazardRatio, Treatment [18]: 1.173
- HazardRatio, PMK2MC_Treatment [19]: 1.206
- HazardRatio, Treatment [19]: 0.804
- HazardRatio, PMK2MC_Treatment [20]: 1.203
- HazardRatio, Treatment [20]: 0.827
- HazardRatio, PMK2MC_Treatment [21]: 1.134
- HazardRatio, Treatment [21]: 0.846
- HazardRatio, PMK2MN_Treatment [22]: 1.094
- HazardRatio, Treatment [22]: 0.815
- HazardRatio, PMK2MN_Treatment [23]: 1.087
- HazardRatio, Treatment [23]: 0.816
- HazardRatio, PMK2MN_Treatment [24]: 0.911
- HazardRatio, Treatment [24]: 1.145
- HazardRatio, PMK2MN_Treatment [25]: 1.126
- HazardRatio, Treatment [25]: 0.758
- HazardRatio, PMK2MN_Treatment [26]: 1.129
- HazardRatio, Treatment [26]: 0.775
- HazardRatio, PMK2MN_Treatment [27]: 1.107
- HazardRatio, Treatment [27]: 0.789
- HazardRatio, PMK2MCNs_Treatment [28]: 1.064
- HazardRatio, Treatment [28]: 0.824
- HazardRatio, PMK2MCNs_Treatment [29]: 1.056
- HazardRatio, Treatment [29]: 0.829
- HazardRatio, PMK2MCNs_Treatment [30]: 0.915
- HazardRatio, Treatment [30]: 1.174
- HazardRatio, PMK2MCNs_Treatment [31]: 1.078
- HazardRatio, Treatment [31]: 0.772
- HazardRatio, PMK2MCNs_Treatment [32]: 1.079
- HazardRatio, Treatment [32]: 0.791
- HazardRatio, PMK2MCNs_Treatment [33]: 1.062
- HazardRatio, Treatment [33]: 0.808
- HazardRatio, ERCC1_Treatment [34]: 1.170
- HazardRatio, Treatment [34]: 0.689
- HazardRatio, ERCC1_Treatment (ERCC1 model, ADENOCARCINOMA, With selected variables): 1.151
